Measured values: patent US20060008506A1, “Method for preparing therapeutic ophthalmic articles using compressed fluids” (priority 2004, published 2006)

Legend:
[1] = analysis of preservation and storage media after three-month storage of impregnated Focus Dailies lenses; type: physicochemical; settings: for effective total mass of Flurbiprofen impregnated in the article: sum of storage and release amounts; for mass of Flurbiprofen released in preservation and storage media: three-month storage in 0.9% NaCl
Description: Afterwards, the two ophthalmic articles were stored and preserved in physiological serum (saline solution, 0.9% NaCl) in closed vessels, for three months. After this period, in vitro kinetic studies were carried out in respect of Flurbiprofen release, following the experimental procedures already described at Example 1.
The maximum cumulative amount of released Flurbiprofen was about 0.007 mg for experiment I and about 0.035 mg for experiment II. These amounts were actually attained after 7 hours of release kinetic studies. […] However, in these cases it cannot be assumed that these values correspond to the total amount of Flurbiprofen impregnated in each ophthalmic article, given that part of the impregnated drug was released in the preservation medium during the three-month storage period. Preservation and storage media were also analyzed and the mass of Flurbiprofen released therein was about 0.0030 mg for experiment I and about 0.0025 mg for experiment II. Therefore, we can assume that the effective total mass of Flurbiprofen impregnated in the two articles was 0.0100 mg and 0.0375 mg respectively for experiments I and II.

[2] = in vitro sustained release kinetic study of impregnated Focus Monthly (Vifilcon A) hydrogel contact lens in physiological serum; type: physicochemical; settings: 90.0 bar, 40.0° C.; for release time at which maximum cumulative amount was attained: 0.9% NaCl at 37° C.; for maximum cumulative amount of released Flurbiprofen: 30 min
Description: A Focus® Monthly® (Ciba Vision, Ga., USA) hydrogel contact lens (ionic, high hydration, FDA Group IV, 55% water+45% Vifilcon A copolymer) was treated by means of the above-mentioned first embodiment of the process, in accordance with the invention and according to FIG. 1. The ophthalmic article was contacted in a sealed high pressure vessel with a mixture of compressed carbon Dioxide (99.998% purity, Air Liquid), Flurbiprofen (CAS[5104-49-4], 97% purity, Sigma-Aldrich) and Ethanol (CAS[64-17-5], 99.8% purity, Fluka), as co-solvent (5% molar in respect of carbon Dioxide). The operating conditions were 90.0 bar and 40.0° C. No stirring was employed. After a 30 minute processing time, the vessel was slowly expanded (for 1.5 minutes) and the compressed fluid (carbon Dioxide) was removed. Part of the co-solvent (Ethanol) was dragged out of the system by the Carbon Dioxide, while its remaining part precipitated, as a liquid, to the bottom of the high pressure vessel. The high pressure vessel was then removed from the temperature controlled bath, opened and the ophthalmic article was recovered, impregnated with Flurbiprofen. Later on, the impregnated ophthalmic article was placed in 5 ml of physiological serum (saline solution, 0.9% NaCl) inside a closed vessel. This vessel was subsequently placed inside a temperature controlled bath (at 37° C.), in order to carry out the in vitro sustained release kinetic study of the drug (Flurbiprofen). At regular time intervals (shorter time intervals at the beginning), 3 ml of the release solution (containing the released drug) were removed from the vessel and replaced by 3 ml of fresh physiological serum. The concentration of Flurbiprofen was determined by spectroscopy for each sample collected. A Focus® Monthly® (Ciba Vision, Ga., USA) hydrogel contact lens (ionic, high hydration, FDA Group IV, 55% water+45% Vifilcon A copolymer) was treated by means of the above-mentioned first embodiment of the process, in accordance with the invention and according to FIG. 1. The ophthalmic article was contacted in a sealed high pressure vessel with a mixture of Carbon Dioxide (99.998% purity, Air Liquide) and Flurbiprofen (CAS[5104-49-4], 97% purity, Sigma-Aldrich). No co-solvent was added. The operating conditions were 90.0 bar and 40.0° C. No stirring was employed. After a 30 minute processing time, the vessel was slowly expanded (for 15 minutes) and the compressed fluid (Carbon Dioxide) was removed. The high pressure vessel was then removed from the temperature controlled bath, opened and the ophthalmic article was recovered, impregnated with Flurbiprofen. The in vitro kinetic studies concerning the release of Flurbiprofen were conducted in accordance with the experimental procedures already described at Example 1.

[3] = in vitro release kinetic study of impregnated Focus Dailies (Nelfilcon A) hydrogel contact lenses after three-month storage; type: physicochemical; settings: for maximum cumulative amount of released Flurbiprofen: CO2, 41° C., after three months storage in 0.9% NaCl
Description: Later on, the impregnated ophthalmic article was placed in 5 ml of physiological serum (saline solution, 0.9% NaCl) inside a closed vessel. This vessel was subsequently placed inside a temperature controlled bath (at 37° C.), in order to carry out the in vitro sustained release kinetic study of the drug (Flurbiprofen). At regular time intervals (shorter time intervals at the beginning), 3 ml of the release solution (containing the released drug) were removed from the vessel and replaced by 3 ml of fresh physiological serum. The concentration of Flurbiprofen was determined by spectroscopy for each sample collected. Two Focus® […]® (Ciba Vision, Ga., USA) hydrogel contact lenses (non ionic, high hydration, FDA Group II, 69% water+31% Nelfilcon A copolymer) were separately treated in two different experiments (I and II) by means of the above-mentioned third embodiment of the process, in accordance with the invention and according to FIG. 3. In both experiments, the ophthalmic articles processed were impregnated with Flurbiprofen (CAS[5104-49-4], 97% purity, Sigma-Aldrich) using Carbon Dioxide (99.998% purity, Air Liquide). No co-solvent was added and no stirring was employed. In experiment I, the operating conditions were 41° C. and 90 bar, while in experiment II the operating conditions were 41° C. and 120 bar. In both experiments, drug solubilization was carried out for 1 hour and 30 minutes, and impregnation was carried out for 1 hour. After impregnation, the vessel was slowly depressurized (for 15 minutes) and the compressed fluid (Carbon Dioxide) was removed. The high pressure vessel was then removed from the temperature controlled bath, opened and the ophthalmic article was recovered, impregnated with Flurbiprofen. Afterwards, the two ophthalmic articles were stored and preserved in physiological serum (saline solution, 0.9% NaCl) in closed vessels, for three months. After this period, in vitro kinetic studies were carried out in respect of Flurbiprofen release, following the experimental procedures already described at Example 1.

inflammatory processes = settings: cited from earlier work
baboons = settings: single dose of 125 mg/Kg; cited from earlier work

CC(C(=O)O)c1ccc(-c2ccccc2)c(F)c1 (stereo not shown) [Flurbiprofen]
effective total mass of Flurbiprofen impregnated in the article ([1]; Example 3, experiment I (41° C., 90 bar)): 0.0100 mg | mass of Flurbiprofen released in preservation and storage media ([1]; Example 3, experiment I (90 bar)): about 0.0030 mg | effective total mass of Flurbiprofen impregnated in the article ([1]; Example 3, experiment II (41° C., 120 bar)): 0.0375 mg | mass of Flurbiprofen released in preservation and storage media ([1]; Example 3, experiment II (120 bar)): about 0.0025 mg | release time at which maximum cumulative amount was attained ([2]; Example 1: CO2 + ethanol co-solvent): 24 h | maximum cumulative amount of released Flurbiprofen ([2]; Example 1: Focus Monthly lens impregnated with CO2 + 5% molar ethanol co-solvent, release in 5 ml 0.9% NaCl at 37° C.): about 0.25 mg | release time at which maximum cumulative amount was attained ([2]; Example 2: CO2, no co-solvent): 6 h | maximum cumulative amount of released Flurbiprofen ([2]; Example 2: Focus Monthly lens impregnated with CO2, no co-solvent, release in 0.9% NaCl at 37° C.): about 0.11 mg | maximum cumulative amount of released Flurbiprofen ([3]; Example 3, experiment I: Focus Dailies lens, 90 bar): about 0.007 mg | maximum cumulative amount of released Flurbiprofen ([3]; Example 3, experiment II: Focus Dailies lens, 120 bar): about 0.035 mg | release time at which maximum cumulative amounts were attained ([3]; Example 3, experiments I and II): 7 h | minimum amount of Flurbiprofen to be kept in the eye to prevent inflammatory processes (inflammatory processes): 0.03 to 0.15 µg | acute toxicity (baboons): no acute toxicity
